Measured values from patent US7772246B2 (Pfizer Inc., priority 2007, dated 2010).

Biological target: T1, b-Raf (Homo sapiens, UniProt P15056, V600E)
T1 construct: endogenous in cells; host or cells: A2058 human melanoma cells
Assay: Raf cellular assay (phospho-Mek1/2 ELISA in A2058 cells)
Type: cell-based
Details: Table 3; human melanoma A2058 cells (b-Raf mutation), Mek1/2 Ser217/221 phosphorylation, 1 hour incubation; read-out: pMEK IC50
Experimental: Compounds of the present invention were evaluated for potency against b-Raf using a cellular assay as follows. The activity of Raf kinases in cells is determined by measuring the level of phosphorylation of Mek1/2 at serine 217/221, the site phosphorylated by Raf kinases in vivo. Mek1/2 Ser phosphorylation is measured using anti-phospho-Mek1/2 antibodies (Cell Signaling #9121) in an ELISA format.
Healthy growing human melanoma A2058 cells (harboring a b-Raf mutation) are used for the assay. A2058 cells are grown in 10% FBS DMEM medium. When the cells are near 85%+confluence, the cells are rinsed with PBS once and trypsinized with trypsin/EDTA for 3 minutes. The cells are resuspended in 10% FBS DMEM and are centrifuged down at 1000 rpm for 5 minutes. The cells are resuspended in 10% FBS DMEM and counted on a cell counter. The cells are seeded at 50,000 cells/well in a volume of 100 μL/well in 10% FBS DMEM in a 96 well flat-bottom plate. The negative control wells receive only 100 μL of 10% FBS DMEM medium without cells. The plate is incubated overnight in a cell culture incubator with 5% CO2 at 37° C.
On day 2, testing compounds are prepared in 10% FBS DMEM medium and serially diluted at 1:3 for 11 test concentrations. Each concentration of the compounds is tested in duplicate. The compound solutions are added at 25 μL/well to the corresponding wells in the cell plate, and 25 μL/well of the vehicle (0.5% DMSO in 10% FBS DMEM) is added to the negative control wells (no cells) and the positive control wells (cells without compounds). The plate is incubated for 1 hour in a cell culture incubator with 5% CO2 at 37° C. After 1 hour of incubation, the medium is removed, 100 μL/well of cell lysis buffer is added into the cell plate, and the plate is shaken for 15 minutes at room temperature. After 15 minutes, the cell lysates are transferred to an ELISA plate (pre-coated with anti-Mek1 anti-body, Cell Signaling #2352), and the plate is incubated with gentle shaking for 2 hours at room temperature. After 2 hours, the contents of the wells are aspirated and the wells are washed 4 times with wash buffer. 100 μL of phospho-Mek1/2 detection antibody (Cell Signaling #9121) is added into each well and the plate is incubated with gentle shaking for 1 hour at room temperature. After 1 hour, the wells are aspirated and washed 4 times with wash buffer. 100 μL of anti-rabbit IgG HRP-linked antibody (Cell Signaling #7074) is added to each well, and the plate is incubated with gentle shaking for 1 hour at room temperature. After 1 hour, the contents of the wells are aspirated and the wells are washed 4 times with wash buffer. 100 μL of TMB substrate solution (Sigma #T0440) is added into each well, and the plate is incubated with gentle shaking at room temperature for 10 to 20 minutes. After color development, 100 μL of stop solution (1N hydrochloric acid) is added to each well to terminate color development. The plate is read at 450 nm on an ELISA plate reader.

T1 sequence (P15056 whole entry V600E): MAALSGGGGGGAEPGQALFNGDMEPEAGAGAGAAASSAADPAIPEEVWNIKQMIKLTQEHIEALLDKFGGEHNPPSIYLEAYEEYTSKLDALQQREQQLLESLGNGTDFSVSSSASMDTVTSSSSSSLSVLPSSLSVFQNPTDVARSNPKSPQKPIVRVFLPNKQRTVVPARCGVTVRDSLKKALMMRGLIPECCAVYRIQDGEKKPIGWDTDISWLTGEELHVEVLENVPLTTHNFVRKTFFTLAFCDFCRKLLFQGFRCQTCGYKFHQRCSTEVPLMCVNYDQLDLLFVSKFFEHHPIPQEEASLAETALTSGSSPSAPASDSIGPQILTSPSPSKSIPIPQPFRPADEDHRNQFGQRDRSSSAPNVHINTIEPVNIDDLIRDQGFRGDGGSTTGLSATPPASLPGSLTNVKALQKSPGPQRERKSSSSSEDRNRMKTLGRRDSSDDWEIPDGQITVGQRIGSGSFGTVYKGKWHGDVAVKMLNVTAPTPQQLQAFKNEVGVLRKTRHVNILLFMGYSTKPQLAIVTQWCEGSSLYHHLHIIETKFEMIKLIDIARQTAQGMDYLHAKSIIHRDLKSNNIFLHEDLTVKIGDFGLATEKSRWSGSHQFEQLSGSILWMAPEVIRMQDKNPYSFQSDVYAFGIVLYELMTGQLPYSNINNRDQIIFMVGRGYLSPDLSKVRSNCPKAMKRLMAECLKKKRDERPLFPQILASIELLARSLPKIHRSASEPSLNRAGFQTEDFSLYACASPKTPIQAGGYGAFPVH

| SMILES | IC50 [nM] |
| --- | --- |
| CC(=O)N1CCC(n2cc(-c3ccnc(NCC(F)F)n3)c(-c3cnc4[nH]cc(Cl)c4c3)n2)CC1 [Example B-67, 4-[1-(1-acetylpiperidin-4-yl)-3-(3-chloro-1H-pyrrolo[2,3-b]pyridin-5-yl)-1H-pyrazol-4-yl]-N-(2,2-difluoroethyl)-pyrimidin-2-amine] | 9.2 |
| C[C@H](O)CNc1nccc(-c2cn(C3COC3)nc2-c2cnc3[nH]cc(Cl)c3c2)n1 [Example B-99, (2S)-1-({4-[3-(3-chloro-1H-pyrrolo[2,3-b]pyridin-5-yl)-1-oxetan-3-yl-1H-pyrazol-4-yl]pyrimidin-2-yl}amino)propan-2-ol] | 235 |
| CC(C)n1cc(-c2ccnc(NC[C@H](C)O)n2)c(-c2cnc(N)c(OC(F)F)c2)n1 [Example B-39, (2S)-1-[(4-{3-[6-amino-5-(difluoromethoxy)-pyridin-3-yl]-1-isopropyl-1H-pyrazol-4-yl}pyrimidin-2-yl)amino]propan-2-ol] | 87.8 |
| Cc1n[nH]c2ncc(-c3nn(CC(F)F)cc3-c3ccnc(NC4CCOC4)n3)cc12 (stereo not drawn) [Example G-4, 4-[1-(2,2-difluoroethyl)-3-(3-methyl-1H-pyrazolo[3,4-b]pyridin-5-yl)-1H-pyrazol-4-yl]-N-(tetrahydrofuran-3-yl)pyrimidin-2-amine] | 774 |
| Cc1c[nH]c2ncc(-c3nn(C(C)C)cc3-c3ccnc(N)n3)cc12 [Example B-62, 4-[1-isopropyl-3-(3-methyl-1H-pyrrolo[2,3-b]pyridin-5-yl)-1H-pyrazol-4-yl]pyrimidin-2-amine] | 48.1 |
| Cc1n[nH]c2ncc(-c3nn(CC(F)F)cc3-c3ccnc(NCC(F)F)n3)cc12 [Example G-3, N-(2,2-difluoroethyl)-4-[1-(2,2-difluoroethyl)-3-(3-methyl-1H-pyrazolo[3,4-b]pyridin-5-yl)-1H-pyrazol-4-yl]pyrimidin-2-amine] | 22.9 |
| Cc1cc(-c2nn(CC(F)F)cc2-c2ccnc(NC[C@H](C)O)n2)cnc1N [Example B-18, (2S)-1-({4-[3-(6-amino-5-methylpyridin-3-yl)-1-(2,2-difluoroethyl)-1H-pyrazol-4-yl]pyrimidin-2-yl}amino)propan-2-ol] | 580 |
| Nc1nccc(-c2cn(CC(F)F)nc2-c2cnc3[nH]cc(Cl)c3c2)n1 [Example B-107, 4-[3-(3-chloro-1H-pyrrolo[2,3-b]pyridin-5-yl)-1-(2,2-difluoroethyl)-1H-pyrazol-4-yl]pyrimidin-2-amine] | 8.06 |
| CC(C)n1cc(-c2ccncn2)c(-c2cnc3[nH]cc(Cl)c3c2)n1 [Example F-1, 3-chloro-5-(1-isopropyl-4-(pyrimidin-4-yl)-1H-pyrazol-3-yl)-1H-pyrrolo[2,3-b]pyridine] | 49.9 |
| COc1cc(-c2nn(C(C)C)cc2-c2ccnc(NC3CC3)n2)cnc1N [Example B-16, 4-[3-(6-amino-5-methoxypyridin-3-yl)-1-isopropyl-1H-pyrazol-4-yl]-N-cyclopropylpyrimidin-2-amine] | 24 |
| C[C@H](O)CNc1nccc(-c2cn([C@H]3C[C@@H](F)C3)nc2-c2cnc3[nH]cc(Cl)c3c2)n1 [Example B-84, (S)-1-(4-(3-(3-chloro-1H-pyrrolo[2,3-b]pyridin-5-yl)-1-((1s,3s)-3-fluorocyclobutyl)-1H-pyrazol-4-yl)pyrimidin-2-ylamino)propan-2-ol] | 18.7 |
| Cc1c[nH]c2ncc(-c3nn(C4CCN(C)CC4)cc3-c3ccnc(NCC(F)F)n3)cc12 [Example B-113, N-(2,2-difluoroethyl)-4-[1-(1-methylpiperidin-4-yl)-3-(3-methyl-1H-pyrrolo[2,3-b]pyridin-5-yl)-1H-pyrazol-4-yl]pyrimidin-2-amine] | 1.48 |

The remaining lines, values ahead:

| IC50 [nM] | SMILES |
| --- | --- |
| 0.836 | CC(C)(CO)n1cc(-c2ccnc(NCCC#N)n2)c(-c2cnc3[nH]cc(Cl)c3c2)n1 [Example E-5, 3-({4-[3-(3-chloro-1H-pyrrolo[2,3-b]pyridin-5-yl)-1-(2-hydroxy-1,1-dimethylethyl)-1H-pyrazol-4-yl]pyrimidin-2-yl}amino)-propanenitrile] |
| 29.5 | C[C@H](O)CNc1nccc(-c2cn(C(C)(C)C#N)nc2-c2cnc3[nH]cc(Cl)c3c2)n1 [Example B-34, 2-[3-(3-chloro-1H-pyrrolo[2,3-b]pyridin-5-yl)-4-(2-{[(2S)-2-hydroxypropyl]amino}pyrimidin-4-yl)-1H-pyrazol-1-yl]-2-methylpropanenitrile] |
| 1.24 | COc1cc(-c2nn(C(C)(C)C)cc2-c2ccnc(NCC(F)F)n2)cnc1N [Example B-54, 4-[3-(6-amino-5-methoxypyridin-3-yl)-1-tert-butyl-1H-pyrazol-4-yl]-N-(2,2-difluoroethyl)pyrimidin-2-amine] |
| 107 | C[C@H](O)CNc1nccc(-c2cn(CC(F)F)nc2-c2cnc3[nH]cc(F)c3c2)n1 [Example B-101, (2S)-1-({4-[1-(2,2-difluoroethyl)-3-(3-fluoro-1H-pyrrolo[2,3-b]pyridin-5-yl)-1H-pyrazol-4-yl]pyrimidin-2-yl}amino)propan-2-ol] |
| 9.04 | CC(C)(C)n1cc(-c2ccnc(N)n2)c(-c2cnc3[nH]cc(Cl)c3c2)n1 [Example B-65, 4-[1-tert-butyl-3-(3-chloro-1H-pyrrolo[2,3-b]pyridin-5-yl)-1H-pyrazol-4-yl]pyrimidin-2-amine] |
| 9.3 | CC(=O)c1cc(-c2nn(C(C)C)cc2-c2ccnc(NCCC#N)n2)cnc1N [Example B-52, 3-({4-[3-(5-acetyl-6-aminopyridin-3-yl)-1-isopropyl-1H-pyrazol-4-yl]pyrimidin-2-yl}amino)propanenitrile] |
| 11 | Cc1n[nH]c2ncc(-c3nn(C(C)C)cc3-c3ccnc(NCCC#N)n3)cc12 [Example B-51, 3-({4-[1-isopropyl-3-(3-methyl-1H-pyrazolo[3,4-b]pyridin-5-yl)-1H-pyrazol-4-yl]pyrimidin-2-yl}amino)propanenitrile] |
| 8.8 | CC(=O)c1cc(-c2nn(CC(F)F)cc2-c2ccnc(NCCC#N)n2)cnc1N [Example B-78, 3-(4-(3-(5-acetyl-6-aminopyridin-3-yl)-1-(2,2-difluoroethyl)-1H-pyrazol-4-yl)pyrimidin-2-ylamino)propanenitrile] |
| 5.33 | CC(C)(C)n1cc(-c2ccnc(NCCC#N)n2)c(-c2cnc3[nH]ccc3c2)n1 [Example B-74, 3-({4-[1-tert-butyl-3-(1H-pyrrolo[2,3-b]pyridin-5-yl)-1H-pyrazol-4-yl]pyrimidin-2-yl}amino)-propanenitrile] |
| 16 | COc1cncc(-c2nn(CC(F)F)cc2-c2ccnc(NCCC#N)n2)c1 [Example B-46, 3-({4-[1-(2,2-difluoroethyl)-3-(5-methoxypyridin-3-yl)-1H-pyrazol-4-yl]pyrimidin-2-yl}amino)propanenitrile] |
| 22.4 | COc1cncc(-c2nn(C(C)(C)CO)cc2-c2ccnc(NCCC#N)n2)c1 [Example B-49, 3-(4-(1-(1-hydroxy-2-methylpropan-2-yl)-3-(5-methoxypyridin-3-yl)-1H-pyrazol-4-yl)pyrimidin-2-ylamino)propanenitrile] |
| 55.4 | COc1cc(-c2nn(C(C)(C)C)cc2-c2ccncn2)cnc1N [Example F-3, 5-(1-tert-butyl-4-pyrimidin-4-yl-1H-pyrazol-3-yl)-3-methoxypyridin-2-amine] |
| 23.8 | N#CCCNc1nccc(-c2cn([C@@H]3CCOC3)nc2-c2cnc3[nH]ccc3c2)n1 [Example B-75, 3-[(4-{3-(1H-pyrrolo[2,3-b]pyridin-5-yl)-1-[(3R)-tetrahydrofuran-3-yl]-1H-pyrazol-4-yl}pyrimidin-2-yl)amino]propanenitrile] |
| 6.64 | CC(C)n1cc(-c2ccnc(NCCC#N)n2)c(-c2cnc3c(c2)CCN3)n1 [Example B-20, 3-({4-[3-(2,3-dihydro-1H-pyrrolo[2,3-b]pyridin-5-yl)-1-isopropyl-1H-pyrazol-4-yl]pyrimidin-2-yl}amino)propanenitrile] |
| 2.95 | COc1cc(-c2nn(C3CC3)cc2-c2ccnc(NCCC#N)n2)cnc1N [Example B-57, 3-({4-[3-(6-amino-5-methoxypyridin-3-yl)-1-cyclopropyl-1H-pyrazol-4-yl]pyrimidin-2-yl}amino)-propanenitrile] |
